Experimental findings from publication PMC5465072 (Scientific Reports, 2017) are described below.

Assay [1] concerns the target His6-PA488–735 / GST-CMG2_38–218 interaction (UniProt P13423+P58335). Kind of assay: biochemical. More on the design: species or system Bacillus anthracis PA / human CMG2.
A further assay deals with J774 cells. The class given is cell-based.
Assay [2] deals with His6-PA596–735 / GST-CMG2_38–218 interaction (Homo sapiens, UniProt P58335). The assay is described as follows: biochemical. The format is biochemical, Bacillus anthracis PA / human CMG2.
The next assay addresses CMG2_38–218 (Homo sapiens, UniProt P58335). Kind of assay: biochemical. The format is binding.

“Also recorded” adds a separate entry of the source. Square brackets hold non-standard residues; d marks the D form. Ends that are not written are not given here. Peptide text beside a SMILES is read from it. Phe(4-Cl) = N[C@@H](Cc1ccc(Cl)cc1)C(=O)O Where only a bound is given, the exact number is not on record here.

Chain of His6-PA488–735 / GST-CMG2_38–218 interaction (P13423 517-764 limits assumed): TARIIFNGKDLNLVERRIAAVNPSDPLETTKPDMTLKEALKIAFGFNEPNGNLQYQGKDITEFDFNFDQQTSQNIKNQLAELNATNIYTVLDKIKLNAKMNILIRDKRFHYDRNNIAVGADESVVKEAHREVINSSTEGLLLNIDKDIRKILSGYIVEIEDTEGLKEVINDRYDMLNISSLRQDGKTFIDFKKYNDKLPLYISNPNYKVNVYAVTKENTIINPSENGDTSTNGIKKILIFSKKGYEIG
Chain of His6-PA488–735 / GST-CMG2_38–218 interaction (P58335 38-218 limits assumed): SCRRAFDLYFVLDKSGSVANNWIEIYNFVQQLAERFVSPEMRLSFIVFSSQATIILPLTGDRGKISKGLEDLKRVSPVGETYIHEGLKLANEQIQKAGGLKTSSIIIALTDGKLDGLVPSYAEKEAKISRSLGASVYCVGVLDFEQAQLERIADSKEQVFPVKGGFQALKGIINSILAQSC
Chain of His6-PA596–735 / GST-CMG2_38–218 interaction (P58335 38-218 limits assumed): as above
Chain of CMG2_38–218 (P58335 38-218): as the sequence (P58335 38-218 limits assumed) above

With H-CMNHAPA-OH [CMNHAPA], in assay [1], half-maximal inhibition (IC50) was put at 522 ± 47.8 µM and the “fold loss of activity in PA/CMG2 ELISA over the parent peptide CMNHFPA” value is listed as 10 fold.

With (4-Cl-F)CRTL, the “protection of J774 cells from lethal toxin” value in the assay with J774 cells is “No protective effect; also recorded: no such protection”.

In the case of HPCNAMF [HPCNAMF], in assay [1], the IC50 (commonly the concentration needed to halve the response being measured) was 153 ± 9.3 µM and the “fold loss of activity in PA/CMG2 ELISA over the parent peptide CMNHFPA” value worked out at 3 fold.

As to FCRTL, the “IC50 for disruption of the interaction of His6-PA488–735 and GST-CMG2_38–218” value in assay [1] was “inactive”.

Take `CC(C)C[C@H](NC(=O)[C@@H](N)CS)C(=O)N[C@@H](CCCNC(=N)N)C(=O)N[C@@H](Cc1ccc(Cl)cc1)C(=O)N[C@H](C(=O)O)[C@@H](C)O` [CLR(4-Cl-F)T] (H-CLR[Phe(4-Cl)]T-OH): in the assay on J774 cells, the “concentration that protects J774 cells from lethal toxin” value is given as not below 50 µM.

In assay [1], CLRPT [CLRPT] returned an IC50 of 153 ± 2.9 µM.

In assay [1], CMNHFPA [CMNHFPA] had an IC50 of 49.8 ± 2.7 µM. The “IC50 for disruption of the interaction of His6-PA596–735 and GST-CMG2_38–218” value in assay [2] was “not active; also recorded: lost all activity”.

For CLRFT [CLRFT], the IC50 in assay [1] came to 77.1 ± 9.5 µM; in assay [2] it was 71.3 ± 6.5 µM. Also, the affinity at CMG2_38–218, expressed as Kd, was 30.2 ± 1.2 µM.
